Data taken from patent publication US5698546A, “Cyclic polyamines” (Johnson Matthey Public Limted Company, priority 1994, dated 1997).
Structures can show the parent of a compound that is named as a salt. Where two headings read alike, the source gives them in different places.

Assays:
[1] = literature (Barefield et al); cited from earlier work
cells = conditions: in words; cited from earlier work
HIV-1 (HTLV-IIIB) = assay: microbe, parasite or virus in culture; format: cell-based
HIV-2 (LAV-2 ROD) = assay: MT-4 cells challenged with HIV-2, viability by MTT method (antiviral activity); format: cell-based, Human Immunodeficiency Virus; conditions: for IC50: Human immunodeficiency virus 2, MT4, 120 h
[2] = cytotoxicity in MT-4 cells, MTT method; conditions: human
[3] = octanol/buffer partition coefficient; format: physicochemical; conditions: for logD: octanol/buffer
Excerpt: The compounds were additionally studied to determine their partition coefficients as between octanol and water, in standard tests at various pH values. A partition coefficient greater than unity at pH 7-9 is generally considered to be a good indication that the compound will be absorbed through the upper gastrointestinal tract when dosed orally.

solubility in water = format: physicochemical; conditions: dimer believed to be the meso 2R,2'S isomer, characterised by the applicant
[4] = Human immunodeficiency virus 1, IIIB, MT4, 120 h
[5] = CC50, HIV-1 (IIIB) part of Table 1, 5 days at 37° C.
[6] = CC50, HIV-2 (ROD) part of Table 1, 5 days at 37° C.
[7] = Human immunodeficiency virus 1, MT4, 120 h, HIV-1 (IIIB), MT-4 cells, 5 days at 37° C., read-out: IC50
[8] = HIV-2 (ROD), MT-4 cells, 5 days at 37° C., read-out: IC50

SMILES	IC50 (HIV-1 (HTLV-IIIB); [4]) [µg/mL]	IC50 (HIV-2 (LAV-2 ROD)) [µg/mL]	CC50 at 120 h [2, 5] [µg/mL]	CC50 at 120 h [2, 6] [µg/mL]	logD ([3]; pH 8)	logD ([3]; pH 9)	SI (Selectivity Index, ratio of CC50 to IC50) (HIV-1 (HTLV-IIIB); HIV-1 (IIIB), MT-4 cells)	SI (Selectivity Index, ratio of CC50 to IC50) (HIV-2 (LAV-2 ROD); HIV-2 (ROD), MT-4 cells)	other results
C1CNCCNCCCNC(C2CNCCCNCCNCCCN2)CNC1 (stereo not drawn) [2,2'-dimer of cyclam]									solubility in water [1]: insoluble in water
Cc1cn([C@H]2C[C@H](N=[N+]=[N-])[C@@H](CO)O2)c(=O)[nH]c1=O [AZT]									toxicity to cells (cells): high toxicity to cells
c1cc2nc(c1)CNCCCN(Cc1ccc(CN3CCCNCc4cccc(n4)CNCCC3)cc1)CCCNC2 [Compound A, 7,7'-[1,4-Phenylenebis(methylene)]bis-3,7,11,17-tetraazabicyclo[13.3.1heptadeca-1(17),13,15-trienehexahydrobromide hexahydrate]	0.719	3.51	> 250	> 250	-0.963	0.713			
Clc1cc2nc(c1)CNCCCN(Cc1ccc(CN3CCCNCc4cc(Cl)cc(n4)CNCCC3)cc1)CCCNC2 [Compound B, 7,7'-[1,4-Phenylenebis(methylene)]bis[15-chloro-3,7,11,17-tetraazabicyclo[13.3.1]heptadeca-1(17),13,15-triene]hexahydrobromide monoacetate]	0.89		12.5		0.588	1.46	14		logD ([3]; pH 7): -1
COc1cc2nc(c1)CNCCCN(Cc1ccc(CN3CCCNCc4cc(OC)cc(n4)CNCCC3)cc1)CCCNC2 [Compound C, 7,7'-[1,4-Phenylenebis(methylene)]bis[15-methoxy-3,7,11,17-tetraazabicyclo-[13.3.1]heptadeca-1(17),13,15-triene] hexahydrobromide dihydrate]	3.57	9.74	229	> 250	-0.959	-0.0605	64		
O=c1cc2[nH]c(c1)CNCCCN(Cc1ccc(CN3CCCNCc4cc(=O)cc([nH]4)CNCCC3)cc1)CCCNC2 [Compound D, 7,7'-[1,4-Phenylenebis(methylene)]bis-3,7,11,17-tetraazabicyclo-[13.3.1]-heptadeca-13,16-triene-15-one octahydrobromide]	> 218	> 250	> 218	> 250	-1.6	-0.638	< 1	< 1	
c1cc2nc(c1)CCNCCN(Cc1ccc(CN3CCNCCc4cccc(n4)CCNCC3)cc1)CCNCC2 [Compound E, 7,7'-[1,4-Phenylenebis(methylene)]bis-4,7,10,17-tetraazabicyclo-[13.3.1]heptadeca-1(17),13,15-triene octahydrobromide tetrahydrate]	0.0014	0.001	> 250	> 250	-1.44	0.479			logD ([3]; pH 7): -2.4
c1cc2nc(c1)CCNCCCN(Cc1ccc(CN3CCCNCCc4cccc(n4)CCNCCC3)cc1)CCCNCC2 [Compound F, 8,8'-[1,4-Phenylenebis(methylene)]bis-4,8,12,19-tetraazabicyclo[15.3.1]nonadeca-1(19),15,17-triene octahydrobromide heptahydrate]			199	171			336	102	IC50 (HIV-1 (HTLV-IIIB); [7]): 0.59 µg/mL; IC50 (HIV-2 (LAV-2 ROD); [8]): 1.68 µg/mL
c1cc2nc(c1)CNCCN(Cc1ccc(CN3CCNCc4cccc(n4)CNCC3)cc1)CCNC2 [Compound G, 6,6'-[1,4'-Phenylenebis(methylene)]bis-3,6,9,15-tetraazabicyclo[11.3.1]pentadeca-1(15),11,13-triene hexahydromide trihydrate]			6	4.71				31	IC50 (HIV-1 (HTLV-IIIB); [7]): 0.62 µg/mL; IC50 (HIV-2 (LAV-2 ROD); [8]): 0.15 µg/mL
c1cc(CN2CCNCc3cccc(n3)CNCC2)cc(CN2CCNCc3cccc(n3)CNCC2)c1 [Compound H, 6,6'-[1,3-Phenylenebis(methylene)]bis-3,6,9,15-tetraazabicyclo[11.3.1]pentadeca-1(15),11,13-triene hexahydrobromide trihydrate]			32.1	30.7			309	1.12 × 10^4	IC50 (HIV-1 (HTLV-IIIB); [7]): 0.104 µg/mL; IC50 (HIV-2 (LAV-2 ROD); [8]): 0.0027 µg/mL
c1cc(CN2CCCNCCOCCNCCC2)ccc1CN1CCCNCCOCCNCCC1 [Compound J, 8,8'-[1,4-Phenylenebis(methylene)]bis-1-oxa-4,8,12-triazatetradecane-hexahydro bromide trihydrate]	4.62	2.15	> 250	> 250	-1.92	-0.131	> 54	> 116	logD ([3]; pH 7): -2.52
c1cc2nc(c1)CNCCN(Cc1ccc(CN3CCNCc4cccc(n4)CNCCNCc4cccc(n4)C3)cc1)Cc1cccc(n1)CNCCNC2 [Compound K, 17,17'-[1,4-Phenylene-bis(methylene)]bis-3,6,14,17,23,24-hexaazatricyclo[17.3.1.1^8,12] tetracosa-1(23),8,10,12(24),19,21-hexnene octahydrobromide]	4.59	5.89	4.59	5.89	-1.15	0.25	< 1	< 1	
c1cc(CN2CCCNCCNCCCNCC2)ccc1CN1CCCNCCNCCCNCC1 [Compound L, 1,1'-[1,4-phenylenebis(methylene)]bis-1,4,8,11-tetraazacyclotetra-decane octahydrobromide dihydrate, reference compound]			> 250	> 250					IC50 (HIV-1 (HTLV-IIIB); Human immunodeficiency virus 1, IIIB, MT4, 120 h, read-out: IC50): 0.0068 µg/mL; IC50 (HIV-2 (LAV-2 ROD); [8]): 0.009 µg/mL; octanol/buffer partition coefficient ([3]; pH 7): 0.0016; octanol/buffer partition coefficient ([3]; pH 8): 0.005; octanol/buffer partition coefficient ([3]; pH 9): 0.16
C1CNCCNCCCN[C@H]([C@H]2CNCCCNCCNCCCN2)CNC1 [meso 2R,2'S isomer]									solubility in water (solubility in water): soluble
